Earlier results as cited in patent US9750732B2, “Urinary triaosylceramide (Gb3) as a marker of cardiac disease” (Baylor Research Institute, priority 2009, dated 2017).
Like-named read-outs stand apart in the source and are kept apart here.

Key:
[1] = tested on: APC: protein S; details: purified proteins
[2] = tested on: APC: protein S; details: exogenously added; in the presence but not absence of APC: protein S
[3] = in multicomponent vesicles containing phosphatidylserine and phosphatidylcholine

## galactosylceramide
[1]; [3]
  inactivation of factor Va by APC: protein S: enhanced

## glycosylceramide [GlcCer]
[2]
  clotting times of normal plasma: dose-dependently prolonged clotting times
[1]; glycolipid alone
  inactivation of factor Va by APC: protein S: enhanced
[1]; [3]
  inactivation of factor Va by APC: protein S: enhanced

## globotriaosylceramide [Gb3Cer]
[2]
  clotting times of normal plasma: dose-dependently prolonged clotting times
[1]; [3]
  inactivation of factor Va by APC: protein S: enhanced

## lactosylceramide
[1]; [3]
  inactivation of factor Va by APC: protein S: enhanced
